# Data from US10864225B2, “Treatment of metabolic disorders in equine animals” (Boehringer Ingelheim Vetmedica GmbH, priority 2013, dated 2020).
smiles,measurement,setting,value
N#Cc1ccc([C@@H]2O[C@H](CO)[C@@H](O)[C@H](O)[C@H]2O)cc1Cc1ccc(C2CC2)cc1.O=C(O)[C@@H]1CCCN1,mechanical stability of the crystals,allows grinding of the crystals,high mechanical stability
same,physical and chemical stability,under various environmental conditions and during the production of a medicament,high physical and chemical stability
